# Results: patent US7759350B2, “Pyrimidine carboxamides” (Orchid Research Laboratories Ltd., priority 2005, dated 2010)
# What was measured:
# SF-268 = assay: Anti-cancer screen (MTT), SF-268; type: cell-based
# Procedure: [The source words this procedure for another cell line and reports this cell line under the same test.] (§1) Experimental drugs are screened for anti-cancer activity in three cell lines for their GI50, TGI and LC50 values (using five concentrations for each compound). The cell lines are maintained in DMEM containing 10% fetal bovine serum. 96 well microtiter plates are inoculated with cells in 100 μL for 24 h at 37° C., 5% CO2, 95% air and 100% relative humidity. 5000 HCT116 cells/well, 5000 NCIH460 cells/well, 10000 U251 cells/well and 5000 MDAMB231 cells/well are plated. A separate plate with these cell lines is also inoculated to determine cell viability before the addition of the compounds (T0).
# (§2) Following 24 hours incubation, experimental drugs are added to the 96 well plates. Each plate contains one of the above cell lines and the following in triplicate: five different concentrations (0.01, 0.1, 1, 10 and 100 μM) of four different compounds, appropriate dilutions of a cytotoxic standard and control (untreated) wells. Compounds are dissolved in dimethylsulfoxide (DMSO) to make 20 mM stock solutions on the day of drug addition and frozen at −20° C. Serial dilutions of these 20 mM stock solutions are made in complete growth medium such that 100 μL of these drug solutions in medium, of final concentrations equaling 0.01, 0.1, 1, 10 and 100 μM can be added to the cells in triplicate. Standard drugs whose anti-cancer activity has been well documented and which are regularly used are doxorubicin and SAHA.
# (§3) Cells are incubated with compounds for 48 hours followed by the addition of 10 μL 3-(4,5-Dimethyl-2-thiazolyl)-2,5-diphenyl-2H-tetrazolium (MTT) solution per well and a subsequent incubation at 37° C., 5% CO2, 95% air and 100% relative humidity, protected from light. After 4 hours, well contents are aspirated carefully followed by addition of 150 μL DMSO per well. Plates are agitated to ensure solution of the formazan crystals in dimethylsulphoxide and absorbance read at 570 nm.
# (§4) Percent growth is calculated for each compound's concentration relative to the control and zero measurement wells (To; viability right before compound addition). […]
# MCF-7 = assay: Anti-cancer screen (MTT), MCF-7; type: cell-based
# Procedure: [The source words this procedure for another cell line and reports this cell line under the same test.] as §1, §2, §3, §4
# COX-2 = molecular target: T1, COX-2 (Homo sapiens, UniProt P35354); assay: Human whole blood assay, COX-2 inhibition (PGE2 after LPS); type: cell-based; conditions: LPS stimulated
# T1 construct: Fresh blood was collected in tubes containing sodium heparin by vein puncture from healthy male volunteers; endogenous in cells; host or cells: human whole blood from healthy male volunteers, stimulated with LPS
# T1 sequence (P35354 18-604): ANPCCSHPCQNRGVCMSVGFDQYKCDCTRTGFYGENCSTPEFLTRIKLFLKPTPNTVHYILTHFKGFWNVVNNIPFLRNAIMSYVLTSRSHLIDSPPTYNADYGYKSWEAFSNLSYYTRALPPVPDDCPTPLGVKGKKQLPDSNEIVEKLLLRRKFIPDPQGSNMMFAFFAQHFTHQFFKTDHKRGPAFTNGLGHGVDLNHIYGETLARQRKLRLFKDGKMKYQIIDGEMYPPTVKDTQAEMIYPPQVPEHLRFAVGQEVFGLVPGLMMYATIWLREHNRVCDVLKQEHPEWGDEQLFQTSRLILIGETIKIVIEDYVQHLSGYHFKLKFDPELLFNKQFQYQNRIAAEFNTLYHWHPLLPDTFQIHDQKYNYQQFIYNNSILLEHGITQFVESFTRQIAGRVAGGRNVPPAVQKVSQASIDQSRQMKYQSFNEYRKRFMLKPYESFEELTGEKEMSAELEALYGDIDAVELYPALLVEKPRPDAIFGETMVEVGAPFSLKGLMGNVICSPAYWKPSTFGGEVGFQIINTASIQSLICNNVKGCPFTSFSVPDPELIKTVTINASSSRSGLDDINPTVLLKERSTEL
# Procedure: Human whole blood provides a protein and cell rich milieu appropriate for the study of biochemical efficacy of anti-inflammatory compounds such as selective COX-2 inhibitors. […] This is correlating with the observation that COX-2 inhibitors have no effect on prostaglandin E2 (PGE2) production in normal blood. These inhibitors were active only after incubation of human blood with lipopolysaccharide (LPS), which induces COX-2 production in the blood.
# Fresh blood was collected in tubes containing sodium heparin by vein puncture from healthy male volunteers. […] Then test compounds (at various concentrations) or vehicle were added to blood. After that blood was stimulated with LPS B: 4 (10 μg/ml) and incubated for another 18 hours at 37° C. water bath. After which the blood was centrifuged, plasma was separated and stored at −80° C. (J. Pharmacol. Exp. Ther, 271, 1705, 1994; Proc. Natl. Acad. Sci. USA., 96, 7563, 1999). The plasma was assayed for PGE2 using Cayman ELISA kit as per the procedure outlined by the manufacturer (Cayman Chemicals, Ann Arbor, USA).
# IL-1β = assay: In vitro measurement of IL-1β in human PBMC; type: cell-based; conditions: Conc. 0.1 μM, LPS
# Procedure: (§5) In vitro Measurement of Interleukin-6 (IL-6) & Interleukin-1β (IL1β)
# (§6) This assay determines the effect of test compounds on the production of IL-6 and IL1β in human PBMC (Physiol. Res. 52: 593-598, 2003). Compounds were tested for their ability to inhibit the activity of IL-6 and IL1β in human PBMC. PBMC were isolated from blood using BD Vacutainer CPT™ Cell preparation tube (BD Bio Science) and suspended in RPMI medium. The test compounds were preincubated with PBMC (0.5 million/incubation well) for 15 minutes at 37° C. and then stimulated with Lipopolysaccharide (Escherichia coli: B4; 1 μg/ml) for 18 hours at 37° C. in 5% CO2. The levels of IL-6 and IL1β in cell culture medium were estimated using enzyme linked Immunosorbent assay performed in a 96 well format as per the procedure of the manufacturer (R&D Systems, Inc. 614 McKinley Place Nebr., Minneapolis, Minn. 55413, USA).
# NCI-H460 = assay: Anti-cancer screen (MTT), NCI-H460; type: cell-based
# Procedure: as §1
# Following 24 hours incubation, experimental drugs are added to the 96 well plates. […] Compounds are dissolved in dimethylsulfoxide (DMSO) to make 20 mM stock solutions on the day of drug addition and frozen at −20° C. […] Standard drugs whose anti-cancer activity has been well documented and which are regularly used are doxorubicin and SAHA.
# as §3
# Percent growth is calculated for each compound's concentration relative to the control and zero measurement wells (To; viability right before compound addition). If a test well's O.D. value is greater than the To measurement for that cell line % Growth=(test−zero)/(control−zero)×100
# If a test well's O.D. value is lower than the T0 measurement for that cell line, […]
# IL-6 = assay: In vitro measurement of IL-6 in human PBMC; type: cell-based; conditions: Conc. 0.1 μM, LPS
# Procedure: as §5, §6
# [1] = test system: Carrageenan induced paw edema in rat; assay: Carrageenan induced paw edema test in rat; type: in vivo; conditions: 5 mg/kg oral; male wistar rats; 3 hours after carrageenan
# Procedure: Carrageenan Induced Paw Edema Test in Rat
# The carrageenan paw edema test was performed as described by Winter et al (Proc. Soc. Exp. Biol. Med, 111, 544, 1962). Male wistar rats were selected with body weights equivalent within each group. The rats were fasted for eighteen hours with free access to water. The rats were dosed orally with the test compound suspended in vehicle containing 0.25% carboxymethylcellulose and 0.5% Tween 80. The control rats were administered with vehicle alone. After an hour, the rats were injected with 0.1 ml of 1% Carrageenan solution in 0.9% saline into the sub-plantar surface of the right hind paw. Paw volume was measured using digital plethysmograph before and after 3 hours of carrageenan injection. The average of foot swelling in drug treated animals was compared with that of control animals. Anti-inflammatory activity was expressed as the percentage inhibition of edema compared with control group [Arzneim-Forsch/Drug Res., 43 (I), 1,44-50,1993; Otterness and Bliven, Laboratory Models for Testing NSAIDs, In Non-Steroidal Anti-Inflammatory Drugs, (J. Lombardino, ed. 1985)].
# MDAMB-231 = assay: Anti-cancer screen (MTT), MDAMB-231; type: cell-based; conditions: Homo sapiens, MDA-MB-231, 48 hours
# Procedure: as §1
# Following 24 hours incubation, experimental drugs are added to the 96 well plates. […]
# as §3, with “After 4 hours, well contents are aspirated carefully followed by addition of 150 μL DMSO per well.” left out
# as §4
structure (smiles),measurement,setting,value
"CNc1nc(-c2ccc(SC)cc2)nc(SC)c1C(=O)Nc1ccc(C)cc1 [Example 5, 4-(Methylamino)-N-(4-methylphenyl)-6-(methylthio)-2-[4-(methylthio)phenyl]pyrimidine-5-carboxamide]",Percentage growth CNS SF-268,SF-268; Conc. 50 μM,106%
same,Percentage growth Breast MCF-7,MCF-7; Conc. 50 μM,160%
same,inhibition at 0.25 µM,COX-2; Conc. 0.25 μM,36.8%
same,IL-1β Inhibition (%),IL-1β,Not active
same,Percentage growth Lung NCI-H460,NCI-H460; Conc. 50 μM,48%
same,inhibition at 0.1 µM,IL-6,14.9%
same,Inhibition of edema (%) at 5 mg/kg,[1],53.07%
"CNc1nc(-c2ccc(SC)cc2)nc(SC)c1C(=O)Nc1ccc(C)c(C)c1 [Example 9, N-(3,4-Dimethylphenyl)-4-(methylamino)-6-(methylthio)-2-[4-(methylthio)phenyl]pyrimidine-5-carboxamide]",Percentage growth CNS SF-268,SF-268; Conc. 100 μM,5%
same,Percentage growth Breast MCF-7,MCF-7; Conc. 100 μM,6%
same,inhibition at 10 µM,COX-2; Conc. 10 μM,29.2%
same,Percentage growth Lung NCI-H460,NCI-H460; Conc. 100 μM,0%
"CNc1nc(-c2ccncc2)nc(SC)c1C(=O)Nc1ccc(C)c(C)c1 [Example 25, N-(3,4-Dimethylphenyl)-4-(methylamino)-6-(methylthio)-2-pyridin-4-ylpyrimidine-5-carboxamide]",GI50,MDAMB-231,0.1 µM
same,GI50,"NCI-H460; Homo sapiens, NCI-H460, 48 hours, MTT",5.5 µM
